Molecules are shown by their SMILES.

Data set [1] concerns Anopheles gambiae larvae of resistant strain AcerKis. Nature of the data set: Larval sensitivity test (cup test), AcerKis strain. It is filed as in vivo. Particulars: for LC10 - 24 hours / LC10 - 48 hours: AcerKis larvae, graphical projection from log-probit regression curves; for LC10 - 24 hours: 24 hours exposure; for LC10 - 48 hours: 48 hours exposure. The method, then:
Larval Testing Protocol. The larval sensitivity test or cup test, which was used in the present study, assesses the sensitivity of mosquito larvae to insecticides and repellents. The larvae were placed in cups containing 100 mL of osmosis water added with the substance to be tested or with only solvent in the case of the controls (see FIG. 3). Four containers (cups) of 25 larvae were exposed to one modality, for a total of 100 larvae. The mortality rate was observed 24 hours after exposure to the insecticide. The mosquitoes used were late L3/early L4 larvae (last larval stages) of Anopheles gambiae, sensitive Kis reference strain and a resistant strain AcerKis, grown in the MIVEGEC laboratory under standardized conditions.
(§1) Methodology of the WHO-certified Test of the Sensitivity of Larvae to Insectivides and Repellents. The sensitivity to insecticides and repellents of the Anopheles gambia mosquito larvae of the sensitive Kis strain and of the resistant AcerKis and KdrKis strains, was determined using the larval sensitivity test (or WHO-certified cup test). The larvae, selected at the L3/L4 stages, were placed in cups containing 100 mL of osmosis water in the presence of the substance to be tested or only the solvent in the case of controls. Four cups of 25 larvae were exposed to one modality, for a total of 100 larvae. The mortality rate was observed 24 […] and 48 hours after exposure to the insecticide. The mortality rates presented herein were corrected for the mortality observed in the controls of each replicate according to the Abbott formula (Abbott, J. Econom. Entomol., 1925, 18: 265-267).

The subject of data set [2] is Anopheles gambiae larvae of resistant strain KdrKis. Nature of the data set: Larval sensitivity test (WHO-certified cup test), KdrKis strain. It is filed as in vivo. The settings on record: for LC10 - 24 hours / LC10 - 48 hours: KdrKis larvae, graphical projection from log-probit regression curves; for LC10 - 24 hours: 24 hours exposure; for LC10 - 48 hours: 48 hours exposure. The method, then: as §1

As for `CCCCN(CCC(=O)OCC)C(C)=O` [IR3535, ethyl N-acetyl-N-butyl-β-alaninate], the “Mortality rate of larvae” value is “less than 5%” in data set [1] (AcerKis, IR3535 alone 1000 to 4000 mg/L, 24 and 48 hours); “less than 5%” in data set [2] (KdrKis, IR3535 alone 1000 to 4000 mg/L, 24 and 48 hours).
For the molecule `N#C/N=C1\SCCN1Cc1ccc(Cl)nc1` [Thiacloprid, {(2Z)-3-[(6-Chloropyridin-3-yl)methyl]-1,3-thiazolidin-2-ylidene}cyanamide], in data set [1], the “LC10 - 24 hours” value came out at 0.02 mg/L and the “LC10 - 48 hours” value is listed as 0.01 mg/L. In addition, in data set [2], the “LC10 - 24 hours” value is given as 0.02 mg/L and the “LC10 - 48 hours” value is 0.01 mg/L.
With `CN1COCN(Cc2cnc(Cl)s2)C1=N[N+](=O)[O-]` [Thiamethoxam, 3-[(2-Chloro-1,3-thiazol-5-yl)methyl]-5-methyl-N-nitro-1,3,5-oxadiazinan-4-imine], in data set [1], the “LC10 - 24 hours” value stood at 0.04 mg/L and the “LC10 - 48 hours” value is listed as 0.01 mg/L. Moreover, in data set [2], the “LC10 - 24 hours” value stood at 0.04 mg/L and the “LC10 - 48 hours” value was 0.02 mg/L.

The values are drawn from patent US20230232833A1, “Synergistic Compositions for the Control of Mosquito-Borne Diseases” (Universite d'Angers, priority 2020, published 2023).
